Laboratory results: US11286268B1, “EIF4E-inhibiting compounds and methods” (EFFECTOR THERAPEUTICS, INC., priority 2019, dated 2022)
pIC50: −log10 of the molar value. Read-outs that look alike come from different tables or passages of the source.

Target: recombinant eIF4E (Homo sapiens (Human), UniProt P06730)
Test: Fluorescence polarization competition assay for eIF4E binding potency
Method: Compounds were screened for eIF4E binding potency using a fluorescence polarization competition assay. All binding reactions were performed in fluorescence polarization buffer (FPB) containing 20 mM Tris pH 7.5, 100 mM NaCl, 1 mM DTT, and 0.02% Tween-20. Final binding reactions contained 75 nM recombinant eIF4E (Beryllium, custom order), 20 nM EDA-m^7GDP-ATTO-550 (Jena Bioscience, NU-827-550) and varying concentrations of the inhibitory compound of interest. Final DMSO concentration in each reaction was 1%.
eIF4E protein was pre-incubated with EDA-m^7GDP-ATTO-550 in FPB at 2× concentrations for 5 minutes prior to the addition of compounds. Compounds (100×) were prepared using 3-fold serial dilutions in 100% DMSO, and subsequently diluted 1:50 in FPB to produce 2× stocks. 50 μl of 2× eIF4E/EDA-m^7GDP-ATTO-550 were transferred to the wells of a 96-well half-area black flat bottom polystyrene plate. 50 μl of 2× test compound were added, and binding reactions were allowed to equilibrate for 30 minutes at room temperature while protected from light. The fluorescent polarization signal was detected using a Victor 2 multi-label counter (Perkin Elmer) and the concentration necessary to achieve inhibition of eIF4E/EDA-m^7GDP-ATTO-550 binding by 50% (IC50) was calculated using data from an 8-point compound dilution series.
In Table 4A, IC50 values of less than 0.05 μM are labelled as “+++”, from 1 to 0.05 μM are labelled as “++”, and greater than 1 μM are labelled as “+”. ND=not determined.

[1] = fluorescence polarization competition, 75 nM recombinant eIF4E, 20 nM EDA-m7GDP-ATTO-550, IC50 class, read-out: elF4E FP
[2] = inhibition of eIF4E/EDA-m7GDP-ATTO-550 binding by 50%, Table 4B calculated values, read-out: IC50

Chain of recombinant eIF4E (P06730 whole entry): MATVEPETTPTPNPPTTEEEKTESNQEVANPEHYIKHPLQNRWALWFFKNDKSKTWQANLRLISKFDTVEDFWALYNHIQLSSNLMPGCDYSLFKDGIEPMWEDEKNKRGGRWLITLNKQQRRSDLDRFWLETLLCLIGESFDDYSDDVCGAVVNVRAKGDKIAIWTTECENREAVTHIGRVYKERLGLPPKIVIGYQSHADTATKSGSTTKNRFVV

| pIC50 [1] | pIC50 [2] | Structure (SMILES) |
| --- | --- | --- |
| > 7.30 | 7.33 | Cc1nc2c(Cl)cc(Cl)c(C#N)c2c(=O)n1CCOc1ccc(Cl)cc1-c1ccnc2c(C(=O)O)csc12 [compound 209] |
| 6.00 to 7.30 | 7.04 | Cc1nc2c(C#N)c(C(F)(F)F)cc(C#N)c2c(=O)n1CCOc1ccc(Cl)cc1-c1ccnc2c(C(=O)O)csc12 [compound 210] |
| > 7.30 | 7.45 | C#Cc1ccc(C#N)c2c(=O)n(CCOc3ccc(Cl)cc3-c3ccnc4c(C(=O)O)csc34)c(C)nc12 [compound 211] |
| > 7.30 | 7.40 | Cc1nc2cc(C#N)cc(C#N)c2c(=O)n1CCOc1ccc(Cl)cc1-c1ccnc2c(C(=O)O)csc12 [compound 212] |
| > 7.30 | 7.45 | C#Cc1cc(C#N)c2c(=O)n(CCOc3ccc(Cl)cc3-c3ccnc4c(C(=O)O)csc34)c(C)nc2c1 [compound 213] |
| 6.00 to 7.30 | – | Cc1nc2cc(C(F)(F)F)cc(C#N)c2c(=O)n1CCOc1ccc(Cl)cc1-c1ncnc2c(C(=O)O)csc12 [compound 215] |
| 6.00 to 7.30 | 7.20 | Cc1nc2cc(C(F)(F)c3ccncc3)cc(C#N)c2c(=O)n1CCOc1ccc(Cl)cc1-c1ccnc2c(C(=O)O)csc12 [compound 216] |
| 6.00 to 7.30 | 7.26 | Cc1nc2cc(C(C)(F)F)cc(C#N)c2c(=O)n1CCOc1ccc(Cl)cc1-c1ccnc2c(C(=O)O)csc12 [compound 217] |
| > 7.30 | 7.77 | Cc1c(Cl)c2cc(C(F)(F)F)cc(C#N)c2c(=O)n1CCOc1ccc(Cl)cc1-c1ccnc2c(C(=O)O)csc12 [compound 218] |
| 6.00 to 7.30 | 6.96 | Cc1nc2cc(C(F)(F)F)cc(C(F)(F)F)c2c(=O)n1CCOc1ccc(Cl)cc1-c1ccnc2c(C(=O)O)csc12 [compound 219] |
| 6.00 to 7.30 | 6.67 | Cc1nc2cc(C(F)(F)F)cc(C(F)F)c2c(=O)n1CCOc1ccc(Cl)cc1-c1ccnc2c(C(=O)O)csc12 [compound 220] |
| 6.00 to 7.30 | 6.95 | Cc1nc2cc(C(F)(F)F)cc(S)c2c(=O)n1CCOc1ccc(Cl)cc1-c1ccnc2c(C(=O)O)csc12 [compound 221] |
| 6.00 to 7.30 | 6.02 | Cc1nc2cc(C(F)(F)F)cc(S(C)(=O)=O)c2c(=O)n1CCOc1ccc(Cl)cc1-c1ccnc2c(C(=O)O)csc12 [compound 223] |
| 6.00 to 7.30 | 6.83 | Cc1nc2cc(C(F)(F)F)cc(C#N)c2c(=O)n1CCOc1ccc(Cl)cc1-c1nccc2c(C(=O)O)csc12 [compound 225] |
| 6.00 to 7.30 | 7.15 | Cc1nc2cc(C(F)(F)F)cc(C#N)c2c(=O)n1CCOc1ccc(Cl)cc1-c1ccc(C(=O)O)c2ncsc12 [compound 226] |
| 6.00 to 7.30 | 6.29 | Cc1nc2cc(C(F)(F)F)cc(C#N)c2c(=O)n1CCOc1ccccc1-c1ccnc2c(C(=O)O)csc12 [compound 227] |
| > 7.30 | 7.63 | Cc1nc2ccc(C#N)c(C#N)c2c(=O)n1CCOc1ccc(Cl)cc1-c1ccnc2c(C(=O)O)csc12 [compound 228] |
| > 7.30 | 7.65 | Cc1nc2c(S(C)(=O)=O)ccc(C#N)c2c(=O)n1CCOc1ccc(Cl)cc1-c1ccnc2c(C(=O)O)csc12 [compound 229] |
| > 7.30 | 7.83 | Cc1nc2cc(F)c(C(F)F)c(C#N)c2c(=O)n1CCOc1ccc(Cl)cc1-c1ccnc2c(C(=O)O)csc12 [compound 230] |

Second part, the molecule before the results:

| Structure (SMILES) | pIC50 [1] | pIC50 [2] |
| --- | --- | --- |
| N#Cc1cc(C(F)(F)F)cc2nc(C#N)n(CCOc3ccc(Cl)cc3-c3cccc(C(=O)O)c3)c(=O)c12 [compound 185] | 6.00 to 7.30 | 7.02 |
| N#Cc1cc(C(F)(F)F)cc2nc(O)n(CCOc3ccc(Cl)cc3-c3cccc(C(=O)O)c3)c(=O)c12 [compound 186] | 6.00 to 7.30 | 6.46 |
| N#Cc1cc(C(F)(F)F)cc2nc(Cl)n(CCOc3ccc(Cl)cc3-c3cccc(C(=O)O)c3)c(=O)c12 [compound 187] | > 7.30 | 7.32 |
| N#Cc1c(C(F)F)ccc2nc(C(F)F)n(CCOc3ccc(Cl)cc3-c3ccnc4c(C(=O)O)csc34)c(=O)c12 [compound 188] | 6.00 to 7.30 | 7.20 |
| N#Cc1cccc2nc(C(F)F)n(CCOc3ccc(Cl)cc3-c3nccc4c(C(=O)O)csc34)c(=O)c12 [compound 189] | < 6.00 | 5.80 |
| N#Cc1cccc2nc(C(F)F)n(CCOc3ccc(Cl)cc3-c3ccc(C(=O)O)c4cnsc34)c(=O)c12 [compound 190] | 6.00 to 7.30 | 6.52 |
| N#Cc1cccc2nc(C(F)F)n(CCOc3ccc(Cl)cc3-c3ccc(C(=O)O)c4ccsc34)c(=O)c12 [compound 191] | 6.00 to 7.30 | 6.84 |
| N#Cc1cccc2nc(C(F)F)n(CCOc3ccc(Cl)cc3-c3cncn(CC(=O)O)c3=S)c(=O)c12 [compound 192] | < 6.00 | 5.88 |
| Cc1nc2cc(S(C)(=O)=O)cc(C#N)c2c(=O)n1CCOc1ccc(Cl)cc1-c1ccnc2c(C(=O)O)csc12 [compound 194] | > 7.30 | 7.45 |
| Cc1nc2ccc(S(C)(=O)=O)c(C#N)c2c(=O)n1CCOc1ccc(Cl)cc1-c1ccnc2c(C(=O)O)csc12 [compound 195] | > 7.30 | 7.56 |
| Cc1nc2ccc(S(=O)(=O)N(C)C)c(C#N)c2c(=O)n1CCOc1ccc(Cl)cc1-c1ccnc2c(C(=O)O)csc12 [compound 196] | > 7.30 | 7.59 |
| Cc1nc2c(C#N)cc(C(F)F)c(C#N)c2c(=O)n1CCOc1ccc(Cl)cc1-c1ccnc2c(C(=O)O)csc12 [compound 197] | 6.00 to 7.30 | 7.28 |
| Cc1nc2cc(C(F)(F)F)cc(Cl)c2c(=O)n1CCOc1ccc(Cl)cc1-c1ccnc2c(C(=O)O)csc12 [compound 198] | 6.00 to 7.30 | 6.91 |
| Cc1nc2cc(C(F)(F)F)cc(C#N)c2c(=O)n1CCOc1ccc(Cl)cc1-c1ccnc2cc(C(=O)O)sc12 [compound 199] | 6.00 to 7.30 | 6.84 |
| Cc1nc2cc(Cl)cc(C#N)c2c(=O)n1CCOc1ccc(Cl)cc1-c1ccnc2c(C(=O)O)csc12 [compound 200] | > 7.30 | 7.36 |
| Cc1nc2cc(C(F)(F)F)cc(C#N)c2c(=O)n1CCOc1ccc(Cl)cc1-c1cc(C(=O)O)nc2ccsc12 [compound 201] | 6.00 to 7.30 | 6.45 |
| Cc1nc2cc(C(F)(F)F)cc(C#N)c2c(=O)n1CCOc1ccc(Cl)cc1-c1ccnc2c(CC(=O)O)csc12 [compound 202] | > 7.30 | 7.32 |
| Cc1nc2cc(C(F)(F)F)cc(C#N)c2c(=O)n1CCOc1ccc(Cl)cc1-c1csc2c(C(=O)O)csc12 [compound 203] | 6.00 to 7.30 | 7.09 |
| Cc1nc2c(-c3cncnc3)ccc(C#N)c2c(=O)n1CCOc1ccc(Cl)cc1-c1ccnc2c(C(=O)O)csc12 [compound 204] | > 7.30 | 7.35 |
| Cc1sc2c(-c3cc(Cl)ccc3OCCn3c(C)nc4cc(C(F)(F)F)cc(C#N)c4c3=O)ccnc2c1C(=O)O [compound 205] | 6.00 to 7.30 | 7.00 |
| Cc1nc2cc(Cl)c(Cl)c(C#N)c2c(=O)n1CCOc1ccc(Cl)cc1-c1ccnc2c(C(=O)O)csc12 [compound 207] | > 7.30 | 7.67 |
| Cc1nc2cc(Cl)c(Cl)c(Cl)c2c(=O)n1CCOc1ccc(Cl)cc1-c1ccnc2c(C(=O)O)csc12 [compound 208] | 6.00 to 7.30 | 6.99 |
